Assays:
[1] = Tryptophan fluorescent binding assay, POPC vesicles; details: 50 μM peptide, PBS pH 7.4
In short: (§1)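 Tryptophan fluorescence was measured with peptide fixed at 50 μM and POPC or 3POPC/1POPG LUVs (100 nm extruded) titrated 0–5000 μM in PBS pH 7.4, read after 60 min. Excitation was 280 nm and emission 300–450 nm. The value is the lipid concentration giving 50% peptide binding, expressed as lipid per peptide.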

[2] = Tryptophan fluorescent binding assay, 3POPC/1POPG vesicles; details: 50 μM peptide, PBS pH 7.4
In short: as §1

[3] = ANTS/DPX liposome leakage assay, POPC vesicles; format: biochemical; details: 0.5 mM vesicles
In short: (§2)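 0.5 mM extruded 100 nm LUVs loaded with 5 mM ANTS/12.5 mM DPX were incubated 3 h with peptide at 0–20 μM in PBS pH 7.4 or HCl-adjusted PBS pH 4.8. Fluorescence read at ex 350/em 510 nm; 10% Triton set maximum leakage; values expressed as lipid per peptide.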

[4] = ANTS/DPX liposome leakage assay, 3POPC/1POPG vesicles; format: biochemical
In short: as §2

human red blood cells = tested on: human red blood cells
Procedure: Peptides were serially diluted in PBS starting at a concentration of 100 μM. The final volume of peptide in each well was 50 μL. To each well, 50 μL of RBCs in PBS at 2×10^8 cells/mL was added. As a positive lysis control, 1% triton was used. The mixtures were incubated at 37° C. for 1 hour, after which they were centrifuged at 1000x g for 5 minutes. After centrifugation, 10 μL of supernatant was transferred to 90 μL of DI H2O in a fresh 96-well plate. The absorbance of released hemoglobin at 410 nm was recorded and the fractional hemolysis was calculated based on the 100% and 0% lysis controls.

HMLER-shEcad cells = test: HMLER-shEcad viability with co-incubated necrostatin or z-VAD-FMK; format: cell-based, human

Compound: CC(C)C[C@H](NC(=O)CN)C(=O)N[C@@H](CC(C)C)C(=O)N[C@@H](CCC(=O)O)C(=O)N[C@@H](CC(C)C)C(=O)N[C@@H](CC(C)C)C(=O)N[C@@H](CCC(=O)O)C(=O)N[C@@H](CC(C)C)C(=O)N[C@@H](CC(C)C)C(=O)N[C@@H](CC(C)C)C(=O)N[C@@H](CCCCN)C(=O)N[C@@H](C)C(=O)N[C@@H](C)C(=O)NCC(=O)N[C@@H](Cc1c[nH]c2ccccc12)C(N)=O [EEK]
- Lipid Concentration-induced 50% Peptide Binding (L/P) POPC Vesicle [1]: 0.48 L/P
- Lipid Concentration-induced 50% Peptide Binding (L/P) 3POPC/1POPG Vesicle [2]: 4.50 L/P
- Peptide Concentration-induced 50% ANTS/DPX leakage at pH 4.8 (L/P) POPC Vesicle ([3]; pH 4.8): 39 L/P
- Peptide Concentration-induced 50% ANTS/DPX leakage at pH 7.4 (L/P) POPC Vesicle ([3]; pH 7.4): 730 L/P
- Peptide Concentration-induced 50% ANTS/DPX leakage at pH 4.8 (L/P) 3POPC/1POPG Vesicle ([4]; 0.5 mM vesicles, pH 4.8): 386 L/P
- Peptide Concentration-induced 50% ANTS/DPX leakage at pH 7.4 (L/P) 3POPC/1POPG Vesicle ([4]; 0.5 mM vesicles, pH 7.4): 657 L/P
- liposome leakage activity from anionic vesicle at pH 4.8 ([4]; compared with zwitterionic vesicle, pH 4.8): relatively higher liposome leakage activity
- concentration below which minimal lysis is caused (human red blood cells): below 90 μM
- cell viability on co-incubation with necrostatin or z-VAD-FMK (HMLER-shEcad cells): cannot be improved

Source: patent US20230372433A1, “NANOPARTICLE FOR ANTI-CANCER PEPTIDES AND USES THEREOF” (KING'S COLLEGE LONDON, priority 2020, published 2023)
